According to patent US20240199623A1 (ILDONG PHARMACEUTICAL CO., LTD., priority 2020, published 2024):
One block for each compound: values may come before it.

Target: human wild type-CFTR (Homo sapiens, UniProt P13569)
Test: Cell-based YFP assay
Design: expressed in transfected cells; host or cells: CHO-K1 (Chinese hamster ovary)
Conditions: CHO-K1 cells expressing human wild type-CFTR and YFP-H148Q/I152L; forskolin 20 μM = 100% activity; read-out: Cell-based YFP Assay (EC50) Concentration Range
Description: Forskolin (Tocris cat. #1099), Dimethyl sulfoxide (Sigma cat. #D4540), FLUO star Omega microplate reader (BMG Labtech, Ortenberg, Germany), MARS Data Analysis Software (BMG Labtech), GraphPad Prism 5 (GraphPad Software, Inc.) Chinese hamster ovary (CHO-K1) cells expressing human wild type-CFTR and halide sensor YFP-H148Q/I152L were constructed and grown in Dulbecco's modified Eagle's medium (DMEM) supplemented with 10% FBS, 2 mM glutamine, 100 units/ml penicillin and 100 μg/ml streptomycin. Chinese hamster ovary (CHO-K1) cells expressing human wild type-CFTR and halide sensor YFP-H148Q/I152L were seeded in 96-well microplate with 2×10^4 cells/well and incubated in 37° C., 48 hours. Then, each well was washed 3 times with PBS and 100 μL PBS was added in each well. […] YFP fluorescence signal affected by I^− ion influx through CFTR channel was measured in 37° C., FLUO star Omega microplate reader according to the following steps: • i) basal 2 seconds; • ii) 140 mM I^− solution 100 μL addition to each well; • iii) YFP fluorescence signal measurement start after 6 seconds; and • iv) following 14 seconds signal detection in every 0.4 seconds periods. […] Experiments were performed in triplicates and the data was averaged. EC50 values were calculated with MARS Data Analysis Software (BMG Labtech) and GraphPad Prism 5.

Chain of human wild type-CFTR (P13569 whole entry): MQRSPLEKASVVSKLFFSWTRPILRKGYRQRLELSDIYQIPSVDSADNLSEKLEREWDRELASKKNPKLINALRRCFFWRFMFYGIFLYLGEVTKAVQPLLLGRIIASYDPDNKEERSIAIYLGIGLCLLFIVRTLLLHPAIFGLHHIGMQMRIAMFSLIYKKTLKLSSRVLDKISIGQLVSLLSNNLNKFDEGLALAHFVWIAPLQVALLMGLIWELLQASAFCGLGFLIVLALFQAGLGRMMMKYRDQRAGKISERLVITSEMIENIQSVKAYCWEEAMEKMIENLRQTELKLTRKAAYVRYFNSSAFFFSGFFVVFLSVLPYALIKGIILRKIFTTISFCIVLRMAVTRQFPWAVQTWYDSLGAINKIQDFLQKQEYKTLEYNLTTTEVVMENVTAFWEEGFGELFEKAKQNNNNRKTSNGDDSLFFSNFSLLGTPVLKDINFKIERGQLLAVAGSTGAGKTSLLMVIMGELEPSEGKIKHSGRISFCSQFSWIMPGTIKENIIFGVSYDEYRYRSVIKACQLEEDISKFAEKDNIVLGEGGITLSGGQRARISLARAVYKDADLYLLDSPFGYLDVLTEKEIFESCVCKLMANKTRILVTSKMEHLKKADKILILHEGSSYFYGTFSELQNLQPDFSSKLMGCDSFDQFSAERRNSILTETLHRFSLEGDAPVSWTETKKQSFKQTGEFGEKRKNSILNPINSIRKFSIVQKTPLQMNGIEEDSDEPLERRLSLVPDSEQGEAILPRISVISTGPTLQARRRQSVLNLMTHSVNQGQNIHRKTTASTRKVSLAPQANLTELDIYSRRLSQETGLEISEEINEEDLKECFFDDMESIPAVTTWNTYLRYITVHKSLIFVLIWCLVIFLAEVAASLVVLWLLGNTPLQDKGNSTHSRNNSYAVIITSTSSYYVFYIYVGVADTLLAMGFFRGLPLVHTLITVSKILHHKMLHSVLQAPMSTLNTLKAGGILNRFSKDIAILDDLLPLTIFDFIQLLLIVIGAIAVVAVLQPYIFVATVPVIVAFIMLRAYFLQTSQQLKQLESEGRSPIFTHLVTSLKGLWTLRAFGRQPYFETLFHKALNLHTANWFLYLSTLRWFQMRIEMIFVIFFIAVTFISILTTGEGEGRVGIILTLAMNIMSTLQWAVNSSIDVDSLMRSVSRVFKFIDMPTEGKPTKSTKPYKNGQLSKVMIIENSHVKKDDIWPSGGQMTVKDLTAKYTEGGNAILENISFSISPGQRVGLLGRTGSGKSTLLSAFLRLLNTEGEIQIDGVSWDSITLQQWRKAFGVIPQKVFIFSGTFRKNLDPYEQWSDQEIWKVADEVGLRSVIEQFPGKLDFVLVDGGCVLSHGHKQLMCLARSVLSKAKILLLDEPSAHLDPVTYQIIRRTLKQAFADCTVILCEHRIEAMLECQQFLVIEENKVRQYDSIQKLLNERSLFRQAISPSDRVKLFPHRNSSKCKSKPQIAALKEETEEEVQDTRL

EC50: 200 to 2000 nM
SMILES: COc1ccc(-c2ccnc3cc(C(=O)N4C[C@@H](C)N[C@@H](C)C4)nn23)cc1OC [Compound 358, (7-(3,4-dimethoxyphenyl)pyrazolo[1,5-a]pyrimidin-2-yl) ((3R,5S)-3,5-dimethylpiperazin-1-yl) methanone]

EC50: ≥ 2000 nM
SMILES: COc1ccc(-c2ccnc3cc(C(=O)N4CCN(C(=O)CO)CC4)nn23)cc1OC [Compound 90, 1-(4-(7-(3,4-dimethoxyphenyl)pyrazolo[1,5-a]pyrimidine-2-carbonyl)piperazin-1-yl)-2-hydroxyethan-1-one]

EC50: ≥ 2000 nM
SMILES: COc1ccc(-c2ccnc3cc(C(=O)Nc4ccc(C(=O)O)c(C)c4)nn23)cc1OC [Compound 213, 4-(7-(3,4-dimethoxyphenyl)pyrazolo[1,5-a]pyrimidine-2-carboxamido)-2-methylbenzoic acid]

EC50: ≥ 2000 nM
SMILES: COc1ccc(-c2ccnc3cc(C(=O)NCc4ccc(C(=O)O)cc4)nn23)cc1OC [Compound 94, 4-((7-(3,4-dimethoxyphenyl)pyrazolo[1,5-a]pyrimidine-2-carboxamido)methyl) benzoic acid]

EC50: ≥ 2000 nM
SMILES: COc1ccc(-c2ccnc3cc(NC(=O)Nc4ccc(C(=O)O)cc4)nn23)cc1OC [Compound 107, 4-(3-(7-(3,4-dimethoxyphenyl)pyrazolo[1,5-a]pyrimidin-2-yl)ureido)benzoic acid]

EC50: < 200 nM
SMILES: COc1ccc(-c2ccnc3cc(C(=O)Nc4ccc(C(=O)N5CCN(C)CC5)cn4)nn23)cc1OC [Compound 124, 7-(3,4-dimethoxyphenyl)-N-(5-(4-methylpiperazine-1-carbonyl)pyridin-2-yl)pyrazolo[1,5-a] pyrimidine-2-carboxamide]

EC50: ≥ 2000 nM
SMILES: CCOc1ccc(NC(=O)c2cc3nccc(-c4cccc(OC)c4)n3n2)cc1 [Compound 24, N-(4-ethoxyphenyl)-7-(3-methoxyphenyl)pyrazolo [1,5-a]pyrimidine-2-carboxamide]

EC50: 200 to 2000 nM
SMILES: COc1ccc(-c2ccnc3cc(C(=O)N4CCc5cc(C(=O)N6CCOCC6)ccc54)nn23)cc1OC [Compound 251, (7-(3,4-dimethoxyphenyl)pyrazolo[1,5-a]pyrimidin-2-yl)(5-(morpholine-4-carbonyl)indolin-1-yl) methanone]

EC50: 200 to 2000 nM
SMILES: COc1ccc(-c2ccnc3cc(C(=O)Nc4ccc(C(=O)N[C@@H](Cc5ccccc5)C(=O)O)cc4)nn23)cc1OC [Compound 49, (4-(7-(3,4-dimethoxyphenyl)pyrazolo[1,5-a]pyrimidine-2-carboxamido)benzoyl)-L-phenylalanine]

EC50: ≥ 2000 nM
SMILES: COc1ccc(-c2ccnc3cc(C(=O)N(C)c4ccc(C(=O)N5CCOCC5)cc4)nn23)cc1OC [Compound 249, 7-(3,4-dimethoxyphenyl)-N-methyl-N-(4-(morpholine-4-carbonyl)phenyl)pyrazolo[1,5-a]pyrimidine-2-carboxamide]

EC50: 200 to 2000 nM
SMILES: COc1ccc(-c2ccnc3cc(C(=O)N4CCN(C5CC5)CC4)nn23)cc1OC [Compound 184, (4-cyclopropylpiperazin-1-yl)(7-(3,4-dimethoxyphenyl)pyrazolo [1,5-a]pyrimidin-2-yl)methanone]

EC50: ≥ 2000 nM
SMILES: COc1ccc(-c2ccnc3cc(C(=O)Nc4ccc(C(=O)N[C@@H](CCSC)C(=O)O)cc4)nn23)cc1OC [Compound 87, (4-(7-(3,4-dimethoxyphenyl)pyrazolo[1,5-a]pyrimidine-2-carboxamido)benzoyl)-L-methionine]

EC50: 200 to 2000 nM
SMILES: COC(=O)c1cc2nccc(-c3ccc(OC)c(OC)c3)n2n1 [Compound 4]

Continued, compound first:

SMILES: CCCCOC(=O)c1ccc(NC(=O)c2cc3nccc(-c4ccc(OC)c(OC)c4)n3n2)cc1 [Compound 336, butyl 4-(7-(3,4-dimethoxyphenyl)pyrazolo[1,5-a]pyrimidine-2-carboxamido) benzoate]
EC50: 200 to 2000 nM

SMILES: COc1ccc(-c2ccnc3cc(C(=O)Nc4ccc(N5CCNCC5)cn4)nn23)cc1OC [Compound 286, 7-(3,4-dimethoxyphenyl)-N-(5-(piperazin-1-yl)pyridin-2-yl)pyrazolo [1,5-a]pyrimidine-2-carboxamide]
EC50: < 200 nM

SMILES: COc1ccc(-c2ccnc3cc(C(=O)Nc4cccc(C(N)=O)c4)nn23)cc1OC [Compound 54, N-(3-carbamoylphenyl)-7-(3,4-dimethoxyphenyl)pyrazolo [1,5-a]pyrimidine-2-carboxamide]
EC50: 200 to 2000 nM

SMILES: COc1ccc(-c2ccnc3cc(C(=O)N4CCc5ccc(C(=O)N6CCOCC6)cc5C4)nn23)cc1OC [Compound 238, (7-(3,4-dimethoxyphenyl)pyrazolo[1,5-a]pyrimidin-2-yl)(7-(morpholine-4-carbonyl)-3,4-dihydroisoquinolin-2(1H)-yl)methanone]
EC50: ≥ 2000 nM

SMILES: COc1ccc(-c2ccnc3cc(C(=O)N[C@H]4CC[C@H](C(=O)N5CCN(c6ccccn6)CC5)CC4)nn23)cc1OC [Compound 342, 7-(3,4-dimethoxphenyl)-N-((1R,4R)-4-(4-(pyridin-2-yl)piperazine-1-carbonyl)cyclohexyl) pyrazolo[1,5-a] pyrimidine-2-carboxamide]
EC50: 200 to 2000 nM

SMILES: COc1ccc(-c2ccnc3cc(C(=O)N4CC(NC(=O)OC(C)(C)C)C4)nn23)cc1OC [Compound 116, tert-butyl (1-(7-(3,4-dimethoxyphenyl)pyrazolo [1,5-a]pyrimidine-2-carbonyl)azetidin-3-yl) carbamate]
EC50: 200 to 2000 nM

SMILES: COc1ccc(-c2ccnc3cc(C(=O)Nc4ccc(C(=O)NCC(=O)O)cc4)nn23)cc1OC [Compound 30, (4-(7-(3,4-dimethoxyphenyl)pyrazolo[1,5-a]pyrimidine-2-carboxamido)benzoyl)glycine]
EC50: ≥ 2000 nM

SMILES: COc1ccc(-c2ccnc3cc(C(=O)N4CCc5ccc(C(=O)N6CCN(C)CC6)cc54)nn23)cc1OC [Compound 252, (7-(3,4-dimethoxyphenyl)pyrazolo[1,5-a]pyrimidin-2-yl)(6-(4-methylpiperazine-1-carbonyl)indolin-1-yl)methanone]
EC50: ≥ 2000 nM

SMILES: CCCCCCCCCCOC(=O)c1ccc(NC(=O)c2cc3nccc(-c4ccc(OC)c(OC)c4)n3n2)cc1 [Compound 337, decyl 4-(7-(3,4-dimethoxy-phenyl)pyrazolo[1,5-a]pyrimidine-2-carboxamido)benzoate]
EC50: ≥ 2000 nM

SMILES: COc1ccc(-c2ccnc3cc(C(=O)N4CCc5cc(C(=O)N6CCN(C)CC6)ccc54)nn23)cc1OC [Compound 250, (7-(3,4-dimethoxyphenyl)pyrazolo[1,5-a]pyrimidin-2-yl)(5-(4-methylpiperazine-1-carbonyl)indolin-1-yl) methanone]
EC50: 200 to 2000 nM

SMILES: COc1ccc(-c2ccnc3cc(C(=O)N4CCN(C(=O)Nc5ccccc5)[C@@H](C)C4)nn23)cc1OC [Compound 354, (S)-4-(7-(3,4-dimethoxy-phenyl)pyrazolo[1,5-a]pyrimidine-2-carbonyl)-2-methyl-N-phenylpiperazine-1-carboxamide]
EC50: < 200 nM

SMILES: COc1ccc(-c2ccnc3cc(C(=O)N[C@]45CC[C@](N6CCOCC6)(CC4)CC5)nn23)cc1OC [Compound 320, 7-(3,4-dimethoxyphenyl)-N-(4-morpholinobicyclo[2.2.2]octan-1-yl) pyrazolo[1,5-a]pyrimidine-2-carboxamide]
EC50: 200 to 2000 nM

SMILES: COc1ccc(-c2ccnc3cc(C(=O)N4CCN[C@@H](C)C4)nn23)cc1OC [Compound 181, (S)-(7-(3,4-dimethoxyphenyl)pyrazolo[1,5-a]pyrimidin-2-yl)(3-methylpiperazin-1-yl)methanone]
EC50: ≥ 2000 nM

SMILES: COc1ccc(-c2ccnc3cc(C(=O)NC4CCN(C(=O)COC(C)=O)CC4)nn23)cc1OC [Compound 84, 2-(4-(7-(3,4-dimethoxyphenyl)pyrazolo[1,5-a]pyrimidine-2-carboxamido)piperidin-1-yl)-2-oxoethyl acetate]
EC50: ≥ 2000 nM

SMILES: COc1ccc(-c2ccnc3cc(C(=O)N4CCN(C(=O)c5ccccc5)[C@@H](C(C)C)C4)nn23)cc1OC [Compound 376, (S)-(4-benzoyl-3-isopropylpiperazin-1-yl)(7-(3,4-dimethoxyphenyl)pyrazolo[1,5-a]pyrimidin-2-yl)methanone]
EC50: < 200 nM

SMILES: CCOc1ccc(NC(=O)c2cc3nccc(-c4ccc(OC)cc4)n3n2)cc1 [Compound 13, N-(4-ethoxyphenyl)-7-(4-methoxyphenyl)pyrazolo [1,5-a]pyrimidine-2-carboxamide]
EC50: 200 to 2000 nM

SMILES: COc1ccc(-c2ccnc3cc(C(=O)Nc4ccc(C(=O)NCCCN5CCN(C)CC5)cc4)nn23)cc1OC [Compound 177, 7-(3,4-dimethoxyphenyl)-N-(4-((3-(4-methylpiperazin-1-yl)propyl)carbamoyl)phenyl)pyrazolo[1,5-a]pyrimidine-2-carboxamide]
EC50: ≥ 2000 nM

SMILES: COc1ccc(-c2ccnc3cc(C(=O)N4CC[C@@H](NC(=O)C5CCN(C)CC5)C4)nn23)cc1OC [Compound 188, (R)-N-(1-(7-(3,4-dimethoxyphenyl)pyrazolo [1,5-a]pyrimidine-2-carbonyl)pyrrolidin-3-yl)-1-methylpiperidine-4-carboxamide]
EC50: ≥ 2000 nM

SMILES: CCC[C@H]1CN(C(=O)c2cc3nccc(-c4ccc(OC)c(OC)c4)n3n2)CCN1C(=O)c1ccccc1 [Compound 377, (S)-(4-benzoyl-3-propylpiperazin-1-yl) (7-(3,4-dimethoxyphenyl)pyrazolo [1,5-a]pyrimidin-2-yl)methanone]
EC50: < 200 nM
